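All cell lines were grown in 96-well plates and treated with compound for 48 hours. GI50: concentration for 50% inhibition of growth. TGI marks complete inhibition of growth.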
Assays:
Assay in all cases: DTP human tumour cell line panel, 48 h
ACHN renal = test system: ACHN renal
CCRF-CEM leukemia = test system: CCRF-CEM leukemia
HOP-92 NSCLC = test system: HOP-92 NSCLC
HT29 colon = test system: HT29 colon
MALME-3M melanoma = test system: MALME-3M melanoma
NCI-H226 lung = test system: NCI-H226 lung
NCI-H23 lung = test system: NCI-H23 lung
NCI-H460 lung = test system: NCI-H460 lung
UACC-257 melanoma = test system: UACC-257 melanoma
SF-539 CNS = test system: SF-539 CNS

SMILES	GI50 (ACHN renal)	TGI (ACHN renal)	GI50 (CCRF-CEM leukemia)	TGI (CCRF-CEM leukemia)	GI50 (HOP-92 NSCLC)	TGI (HOP-92 NSCLC)	GI50 (HT29 colon)	TGI (HT29 colon)	GI50 (MALME-3M melanoma)	TGI (MALME-3M melanoma)	GI50 (NCI-H226 lung)	TGI (NCI-H226 lung)	GI50 (NCI-H23 lung)	TGI (NCI-H23 lung)	GI50 (NCI-H460 lung)	TGI (NCI-H460 lung)	GI50 (UACC-257 melanoma)	TGI (UACC-257 melanoma)	GI50 (SF-539 CNS)	TGI (SF-539 CNS)
Cc1cc2c(cc1Cl)S/C(=C/C(=O)O)C(Nc1cccc3nsnc13)=NS2(=O)=O	> 52.3 µM	> 64.9 µM	22.5 µM	> 81.9 µM	28.2 µM	62 µM	6.17 µM	> 63.1 µM	> 53.4 µM	> 65.8 µM	32.1 µM	> 68 µM	35.2 µM	> 61.7 µM	> 39.8 µM	> 65.1 µM	> 57.9 µM	> 70.7 µM		
O=C(NCCN1CCNCC1)c1ccc(Nc2nc3ccccc3c3occc23)cc1	20.1 µM	36 µM	10.3 µM	28.5 µM	1.24 µM	15.8 µM	4.5 µM	> 100 µM					12.6 µM	27.6 µM	17.4 µM	> 100 µM	17 µM	33.8 µM	2.65 µM	6.36 µM
Cc1ccc(NC(=O)/C(Cc2nc3ccc([N+](=O)[O-])cc3[nH]c2=O)=N\NC(=O)C[n+]2ccccc2)c(C)c1		47.6 µM		61.1 µM		> 100 µM		> 100 µM				> 100 µM		> 100 µM		> 100 µM		> 100 µM		> 100 µM
CCOC(=O)N1CCN(CCCCCOc2ccccc2C2CCCCC2)CC1	10.6 µM	23.8 µM	4.42 µM	18.4 µM	4.07 µM	17.5 µM	3.08 µM	12 µM	4.91 µM	19.2 µM	3.96 µM	18.4 µM	3.12 µM	5.93 µM	5 µM	17.7 µM			6.39 µM	19.1 µM
Cc1ccc2oc(=O)c(-c3ccccc3)nc2c1		> 100 µM		> 100 µM				> 100 µM		66.1 µM		> 100 µM		90.7 µM		> 100 µM		> 100 µM		50.5 µM
CN1c2ccccc2SC2C(c3ccccc3)=NOC21 (stereo unspecified)		> 100 µM		> 100 µM				> 100 µM		86.5 µM		> 100 µM		71.7 µM		> 100 µM				> 100 µM
CC(C)[O-].CC(C)[O-].O=c1cccccc1[O-].O=c1cccccc1[O-].[Ti+4]		> 100 µM		> 100 µM		90.8 µM				70.2 µM		> 100 µM		> 100 µM				> 100 µM	29.3 µM	> 100 µM
O=C1CNS(=O)(=O)N1				> 100 µM		> 100 µM		> 100 µM		> 100 µM		> 100 µM		> 100 µM				> 100 µM		> 100 µM
[2H]c1nc(=Nc2cc(NC(=O)C=C)c(N(C)CCN(C)C)cc2OC)[nH]c(-c2cn(C([2H])([2H])[2H])c3ccccc23)c1[2H]	0.0836 µM	1.65 µM			1.04 µM	2.45 µM	1.69 µM	3.26 µM	1.94 µM	3.66 µM	2.45 µM	26 µM	3.14 µM	15.5 µM	1.9 µM	4.37 µM	2.19 µM	3.88 µM	1.47 µM	2.96 µM
COc1c(O)c(OC)c2oc(-c3ccc(O)cc3)c(OC)c(=O)c2c1O		> 100 µM		> 100 µM				> 100 µM		> 100 µM		> 100 µM		> 100 µM		> 100 µM		> 100 µM		> 100 µM
CC1=NN(C(=O)c2ccncc2)C(=O)C1N=Nc1ccc(F)cc1 (stereo unspecified)		> 100 µM				> 100 µM		> 100 µM		> 100 µM		> 100 µM		> 100 µM		> 100 µM		> 100 µM		> 100 µM
Cc1c(C(=O)/C=C/c2ccccc2[N+](=O)[O-])[n+](=O)c2ccccc2n1[O-]		24.2 µM				27.4 µM		23.2 µM		27.8 µM		24 µM		17.8 µM		22.5 µM		20.4 µM		10.2 µM
N#CC(C#N)=c1c2nsnc2c(=C(C#N)C#N)c2nsnc12		3.23 µM				3.35 µM		3.2 µM		3.11 µM		31.9 µM		3.91 µM		3.86 µM		3.53 µM		3.46 µM
O=S1CSSC1		94.9 µM		46.2 µM		57.4 µM		31.4 µM		> 100 µM		71.7 µM		76.7 µM				36.4 µM		40.1 µM
N.N.N.N.N.O=S(=O)([O-])S(=O)(=O)[O-].[Co+3]	> 100 µM	> 100 µM	> 100 µM	> 100 µM	> 100 µM	> 100 µM	> 100 µM	> 100 µM	> 100 µM	> 100 µM			> 100 µM	> 100 µM	> 100 µM	> 100 µM	> 100 µM	> 100 µM	> 100 µM	> 100 µM
Cc1c2ccncc2c(C)c2c1[nH]c1ccc(O)c(OCC(F)(F)F)c12				7.18 µM		16.5 µM		> 7.5 µM		22.3 µM		20.1 µM		19.4 µM		10.5 µM		21.4 µM		16.3 µM
Cc1nc(-c2cccnc2)sc1C(=O)/C=C/c1cccc([N+](=O)[O-])c1				> 100 µM		> 100 µM		> 100 µM		> 100 µM		> 100 µM		> 100 µM		> 100 µM		> 100 µM		> 100 µM
c1ccc(-c2nc(N3CCCNCC3)c3nc(-c4ccccc4)oc3n2)cc1	1.71 µM	3.11 µM					1.76 µM	3.72 µM	1.77 µM	3.33 µM			1.71 µM	3.23 µM	1.86 µM	3.54 µM	1.8 µM	3.43 µM	1.64 µM	3.03 µM
COc1cc(C2c3cc4c(cc3[C@@H](Nc3ccc5c(c3)OCCO5)C3COC(=O)[C@H]23)OCO4)cc(OC)c1O (stereo partly specified)				2.28 µM		4.64 µM		5.96 µM		26.4 µM		1.94 µM		2.79 µM		2.23 µM		> 32.3 µM		5.07 µM
O=C(CC1(O)C(=O)Nc2c(Cl)ccc(Cl)c21)c1ccc(Cl)cc1Cl (stereo unspecified)		30.5 µM				49.6 µM		33.3 µM		34.9 µM		30.5 µM		43.3 µM		38.3 µM		25.1 µM		39.8 µM

From PubChem BioAssay (NCI)
